Legend:
[1] = compatibility between liquid crystal compound and dichroic material (phase separation observed on hot stage under polarizing microscope); type: physicochemical; set-up: key: Compatible: in a case where phase separation is not observed, it is defined as “compatible”; Incompatible: in a case where phase separation is observed, it is defined as “incompatible”; conditions: for Second dichroic material Compatible or incompatible: with the liquid crystal compound of the same composition (same example); for First dichroic material Compatible or incompatible: with the liquid crystal compound of the same composition
Text: Here, the compatibility between the liquid crystal compound and the dichroic material can be confirmed by the following method.
First, two polarizers of an optical microscope (ECLIPSE E600 POL, manufactured by Nikon Corporation) are arranged so as to be orthogonal to each other, and a sample stand is set between the two polarizers.
Next, a sample composition obtained by mixing the liquid crystal compound contained in the polarizer-forming composition and a certain kind of dichroic material at a mass ratio is cast on glass, and this glass is set on a hot stage placed on the sample stand.
Next, the phase separation state of the sample is observed by raising or lowering the temperature of the hot stage in a range of higher than or equal to a higher temperature between the melting point of the liquid crystal compound and the melting point of the dichroic material and lower than or equal to a lower temperature between the isotropic phase transition temperature of the liquid crystal compound and the isotropic phase transition temperature of the dichroic material.
In this operation, in a case where phase separation is not observed, it is defined as “compatible”. Further, in a case where phase separation is observed, it is defined as “incompatible”.
Further, the compatibility between the liquid crystal compound and the first dichroic material or the second dichroic material in the polarizer-forming composition was confirmed by the method described above, and the results thereof are listed in Table 1.

[2] = maximum absorption wavelength of the dichroic material from ultraviolet visible spectrum in solution; type: physicochemical; conditions: solution in a good solvent, 380 to 800 nm
Text: Here, the maximum absorption wavelength (nm) of the dichroic material is acquired from an ultraviolet visible spectrum in a wavelength range of 380 to 800 nm measured by a spectrophotometer using a solution prepared by dissolving the dichroic material in a good solvent.

[3] = first listed first dichroic material
[4] = second listed first dichroic material

| Compound | Second dichroic material Compatible or incompatible [1] | maximum absorption wavelength [2] [nm] | First dichroic material Compatible or incompatible [1, 3] | First dichroic material Compatible or incompatible [1, 4] |
| --- | --- | --- | --- | --- |
| C=CC(=O)OCCCCCCCCCOc1ccc(N=Nc2cc3sc(N=Nc4ccc(N(CC)CCOC(=O)C=C)cc4)nc3s2)cc1 [Example C1] | Incompatible | 592 | – | – |
| C=CC(=O)OCCCCCCCCCCOc1ccc(N=Nc2cc3sc(N=Nc4ccc(N(CC)CCOC(=O)C=C)cc4)nc3s2)cc1 [Example C2] | Incompatible | 592 | – | – |
| C=CC(=O)OCCCCCCCCCOc1ccc(N=Nc2cc3sc(N=Nc4ccc(N(CC)CCOC(=O)C=C)cc4C)nc3s2)cc1 [Example C3] | Incompatible | 605 | – | – |
| C=CC(=O)OCCN(CC)c1ccc(N=Nc2nc3sc(N=Nc4ccc(OCCCCCCCCCOC(=O)CC)cc4)cc3s2)cc1 [Example C4] | Incompatible | 592 | – | – |
| C=CC(=O)OCCN(CC)c1ccc(N=Nc2nc3sc(N=Nc4ccc(OCCCCCCOC(C)=O)cc4)cc3s2)cc1 [Example C5] | – | 592 | Compatible | Compatible |

Next, values leading:

| Second dichroic material Compatible or incompatible [1] | maximum absorption wavelength [2] [nm] | First dichroic material Compatible or incompatible [1, 3] | First dichroic material Compatible or incompatible [1, 4] | Compound |
| --- | --- | --- | --- | --- |
| – | 502 | – | Compatible | FC(F)(F)c1ccc(N=Nc2ccc(N=Nc3ccc(N4CCCC4)cc3)cc2)cc1 [Example M1] |
| – | 457 | – | Compatible | CCCCc1ccc(N=Nc2ccc(N=Nc3ccc(N(CC)CCC#N)cc3)cc2)cc1 [Example M2] |
| – | 442 | – | Compatible | C=CC(=O)CCCN(CC)c1ccc(N=Nc2ccc(N=Nc3ccc(CCCC)cc3)cc2)cc1 [Example M3] |
| – | 413 | Compatible | – | C=CC(=O)OCCCCOc1ccc(N=Nc2ccc(N=Nc3ccc(N=Nc4ccc(OCCCCOC(=O)C=C)cc4)cc3C)cc2)cc1 [Example Y1] |
| – | 445 | Compatible | – | C=CC(=O)OCCCCOc1ccc(N=Nc2ccc(N=Nc3ccc(N=Nc4ccc(OCCCCOC(=O)C=C)cc4O)cc3)c(C)c2)cc1 [Example Y2] |
| – | 413 | Compatible | – | C=CC(=O)OCCCCCOc1ccc(N=Nc2ccc(N=Nc3ccc(N=Nc4ccc(OCCCCCOC(=O)C=C)cc4)cc3C)cc2)cc1 [Example Y3] |
| Incompatible | 445 | – | – | C=CC(=O)OCCCCCCCCCCCCOc1ccc(N=Nc2ccc(N=Nc3ccc(N=Nc4ccc(OCCCCCCCCCCCCOC(=O)C=C)cc4O)cc3)c(C)c2)cc1 [Example Y4] |
| – | 413 | Compatible | – | C=CC(=O)OCCCCCCOc1ccc(N=Nc2ccc(N=Nc3ccc(N=Nc4ccc(OCCCCCCOC(=O)C=C)cc4)cc3C)cc2)cc1 [Example Y5] |
| – | 413 | Compatible | – | C=CC(=O)OCCCCCCCCOc1ccc(N=Nc2ccc(N=Nc3ccc(N=Nc4ccc(OCCCCCCCCOC(=O)C=C)cc4)cc3C)cc2)cc1 [Example Y6] |
| Incompatible | 443 | – | – | C=CC(=O)OCCCCCCCCCCCOc1ccc(N=Nc2cc3sc(NC(=O)c4ccc(CCCC)cc4)nc3s2)cc1 [Example Y7] |
| – | 430 | Compatible | – | C=CC(=O)CC(C)OC(=O)CCC(=O)OCCc1ccc(N=Nc2cc3sc(NC(=O)c4ccc(CCCC)cc4)nc3s2)cc1 (stereo not drawn) [Example Y8] |
